Laboratory results taken from article PMC6851853, “Characterization of P. falciparum dipeptidyl aminopeptidase 3 specificity identifies differences in amino acid preferences between peptide‐based substrates and covalent inhibitors” (The Febs Journal, 2019).

Assays:
DPAP1 = target: T1, DPAP1 (Plasmodium falciparum, UniProt Q8IIJ9); test: biochemical; design: species or system P. falciparum parasite lysate; continuous fluorogenic assay, time-dependent inactivation of DPAP1 in diluted parasite lysate, Pro-Arg-AMC 20 uM; conditions: for kinact: read-out: DPAP1 / k inact ·10^3; for kinact/KI: read-out: DPAP1 / k inact/K i ·10^−3 (M ^−1·s^−1)
T1 sequence (Q8IIJ9 28-209): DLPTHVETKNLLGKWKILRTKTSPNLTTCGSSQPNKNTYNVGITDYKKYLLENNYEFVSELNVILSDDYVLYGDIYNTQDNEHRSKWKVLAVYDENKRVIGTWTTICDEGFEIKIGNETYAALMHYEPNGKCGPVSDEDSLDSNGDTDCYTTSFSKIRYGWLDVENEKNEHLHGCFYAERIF
T1 sequence (Q8IIJ9 370-599): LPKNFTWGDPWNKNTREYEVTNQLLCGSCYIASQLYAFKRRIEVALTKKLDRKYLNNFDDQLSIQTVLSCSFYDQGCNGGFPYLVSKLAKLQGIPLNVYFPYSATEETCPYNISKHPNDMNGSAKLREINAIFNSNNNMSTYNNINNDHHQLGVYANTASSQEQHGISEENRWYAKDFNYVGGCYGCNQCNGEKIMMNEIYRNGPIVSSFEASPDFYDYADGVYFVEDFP
T1 sequence (Q8IIJ9 600-700): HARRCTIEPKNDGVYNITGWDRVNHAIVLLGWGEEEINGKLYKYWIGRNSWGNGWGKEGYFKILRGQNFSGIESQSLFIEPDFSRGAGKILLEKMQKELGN
Experimental: (§1) Inhibition of DPAP1 was directly measured in parasite lysates diluted 100‐fold in assay buffer using the DPAP1‐selective substrate Pro‐Arg‐AMC 42; 0.2 nM of […] was used for these inhibition studies. Note that because DPAP1 inhibition was directly measured in parasite lysates, inhibitors might have been partially inactivated through the action of aminopeptidases present in the lysates during the course of the assay. Therefore, the potency of the inhibitors might have been underestimated. […] The data were analysed according to the irreversible inhibition model shown in Eqn. 1. First, the progress curves (fluorescent units vs. time) were fitted to Eqn. 5, where F is the measured fluorescence at time t, F 0 the initial fluorescence, V 0 the initial turnover rate, and k obs the observed […] rate constant of inhibition measured at each inhibitor concentration 64.

CatC (bovine) = target: T2, CatC (bovine) (Bos taurus, UniProt Q3ZCJ8); test: biochemical; design: continuous fluorogenic assay, time-dependent inactivation of 0.2 nM CatC, Gly-Arg-AMC 15 uM; conditions: for kinact: read-out: CatC / k inact ·10^3; for kinact/KI: read-out: CatC / k inact/K i ·10^−3 (M ^−1·s^−1)
T2 construct: gene CTSC; native, purified to homogeneity from bovine spleen
Experimental: as §1

DPAP3 [1] = target: T3, DPAP3 (Plasmodium falciparum, UniProt Q8I1Y2); test: biochemical; design: gene PF3D7_0404700; recombinant, baculovirus/SF9 insect cells, purified from culture supernatant by ion exchange, Ni-NTA and size exclusion; active-site titrated; continuous fluorogenic assay, time-dependent inactivation of 0.2 nM recombinant DPAP3, Met-nLeu(o-Bzl)-ACC 2.2 uM; conditions: for kinact: read-out: DPAP3 / k inact ·10^3; for kinact/KI: read-out: DPAP3 / k inact/K i ·10^−3 (M ^−1·s^−1)
Experimental: The data were analysed according to the irreversible inhibition model shown in Eqn. 1. First, the progress curves (fluorescent units vs. time) were fitted to Eqn. 5, where F is the measured fluorescence at time t, F 0 the initial fluorescence, V 0 the initial turnover rate, and k obs the observed […] rate constant of inhibition measured at each inhibitor concentration 64. […] The inhibition constants are reported in Fig. 3C and Table 2 (See also Fig. S2 for representative fits). Only one inhibitor, containing an amino‐1‐methyl‐benzyl (Amb) group in P2, was not able to inhibit DPAP3 in a time‐dependent manner under our assay conditions (Fig. 3D). This is probably due to the fact that this extended and rigid P2 AA (Fig. 3E) might prevent proper positioning of the [compound left out] group into the active site of DPAP3 to allow covalent modification of the catalytic cysteine. For this compound, a K i value for reversible inhibition was measured.
Target sequence in this assay (Q8I1Y2 entry or part of it): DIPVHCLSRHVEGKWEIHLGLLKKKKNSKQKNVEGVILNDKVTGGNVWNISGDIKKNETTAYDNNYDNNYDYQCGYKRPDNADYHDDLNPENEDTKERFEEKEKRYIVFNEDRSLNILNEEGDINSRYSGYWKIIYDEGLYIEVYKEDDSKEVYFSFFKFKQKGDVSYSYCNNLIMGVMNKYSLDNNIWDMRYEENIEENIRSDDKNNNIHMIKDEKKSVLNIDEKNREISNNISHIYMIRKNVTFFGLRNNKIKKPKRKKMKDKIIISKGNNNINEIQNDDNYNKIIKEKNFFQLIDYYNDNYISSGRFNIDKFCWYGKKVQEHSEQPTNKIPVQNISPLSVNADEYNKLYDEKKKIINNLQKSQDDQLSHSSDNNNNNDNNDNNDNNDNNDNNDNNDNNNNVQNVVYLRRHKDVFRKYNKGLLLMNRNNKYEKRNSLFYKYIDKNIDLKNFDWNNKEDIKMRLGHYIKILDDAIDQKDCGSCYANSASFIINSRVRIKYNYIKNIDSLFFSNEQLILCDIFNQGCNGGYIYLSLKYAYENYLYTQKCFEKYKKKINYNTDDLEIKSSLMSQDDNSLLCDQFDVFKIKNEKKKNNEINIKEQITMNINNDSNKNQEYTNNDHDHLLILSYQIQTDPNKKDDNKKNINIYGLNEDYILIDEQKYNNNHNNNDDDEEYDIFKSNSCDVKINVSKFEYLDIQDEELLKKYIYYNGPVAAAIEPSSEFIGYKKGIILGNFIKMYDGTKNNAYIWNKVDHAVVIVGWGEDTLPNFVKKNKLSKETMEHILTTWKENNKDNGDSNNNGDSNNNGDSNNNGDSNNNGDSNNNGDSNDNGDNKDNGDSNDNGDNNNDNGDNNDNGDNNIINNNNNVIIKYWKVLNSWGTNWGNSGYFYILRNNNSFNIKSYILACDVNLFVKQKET

DPAP3 [2] = target: T3, DPAP3; test: cell-based; design: native enzyme in live parasites (mature schizonts); species or system P. falciparum mature schizonts in red blood cells; competitive activity-based probe FY01 labelling in intact parasites, in-gel fluorescence densitometry; conditions: live parasites, 30 min pretreatment
Experimental: Live parasites were treated with different concentrations of inhibitor for 30 min, and the residual level of DPAPs and FPs activities were labelled with FY01 and quantified by densitometry (Fig. 6A). […] Compounds with a P2 Trp or Tyr(NO2) are highly specific for DPAP3 in intact parasites. […] Inhibitors need to cross four membranes to reach DPAP3: the RBC, parasitophorous vacuole and parasite plasma membranes, plus the membrane of the apical organelle where DPAP3 resides 21. (The parasitophorous vacuole is a membrane‐bound structure within which the parasite grows and multiplies isolated from the RBC cytosol.) However, crossing of the parasitophorous vacuole membrane is not likely to be a limiting factor to reach DPAP3 since this membrane is generally permeable to small molecules. It is also likely that the apparent increased potency of Trp‐hPG‐VS in live parasites might be due to its accumulation into the DPAP3 acidic organelle via protonation of its free amine. However, we predict that this lysosomotropic effect likely occurs for all DPAP inhibitors presented here.  Figure 6 Selective inhibition of DPAP1 or DPAP3 in live parasites. Intact mature schizonts were pretreated for 30 min with increasing concentrations of inhibitor followed by 1 h treatment with FY01. Samples were then run in an SDS/PAGE gel and the in‐gel fluorescence measured using a fluorescence scanner. (A) Representative gel images obtained for each of the inhibitors. Fluorescent bands corresponding to the different cysteine proteases labelled by the probe are indicated with arrowheads (DPAP3, red; FPs, green; DPAP1, blue). (B) The fluorescence intensity of each of the indicated bands was quantified by densitometry using ImageJ, and the fluorescence values normalized to the DMSO control. […] Three technical replicates were performed; dose responses for a representative replicate are shown.
Target sequence in this assay (Q8I1Y2 entry or part of it): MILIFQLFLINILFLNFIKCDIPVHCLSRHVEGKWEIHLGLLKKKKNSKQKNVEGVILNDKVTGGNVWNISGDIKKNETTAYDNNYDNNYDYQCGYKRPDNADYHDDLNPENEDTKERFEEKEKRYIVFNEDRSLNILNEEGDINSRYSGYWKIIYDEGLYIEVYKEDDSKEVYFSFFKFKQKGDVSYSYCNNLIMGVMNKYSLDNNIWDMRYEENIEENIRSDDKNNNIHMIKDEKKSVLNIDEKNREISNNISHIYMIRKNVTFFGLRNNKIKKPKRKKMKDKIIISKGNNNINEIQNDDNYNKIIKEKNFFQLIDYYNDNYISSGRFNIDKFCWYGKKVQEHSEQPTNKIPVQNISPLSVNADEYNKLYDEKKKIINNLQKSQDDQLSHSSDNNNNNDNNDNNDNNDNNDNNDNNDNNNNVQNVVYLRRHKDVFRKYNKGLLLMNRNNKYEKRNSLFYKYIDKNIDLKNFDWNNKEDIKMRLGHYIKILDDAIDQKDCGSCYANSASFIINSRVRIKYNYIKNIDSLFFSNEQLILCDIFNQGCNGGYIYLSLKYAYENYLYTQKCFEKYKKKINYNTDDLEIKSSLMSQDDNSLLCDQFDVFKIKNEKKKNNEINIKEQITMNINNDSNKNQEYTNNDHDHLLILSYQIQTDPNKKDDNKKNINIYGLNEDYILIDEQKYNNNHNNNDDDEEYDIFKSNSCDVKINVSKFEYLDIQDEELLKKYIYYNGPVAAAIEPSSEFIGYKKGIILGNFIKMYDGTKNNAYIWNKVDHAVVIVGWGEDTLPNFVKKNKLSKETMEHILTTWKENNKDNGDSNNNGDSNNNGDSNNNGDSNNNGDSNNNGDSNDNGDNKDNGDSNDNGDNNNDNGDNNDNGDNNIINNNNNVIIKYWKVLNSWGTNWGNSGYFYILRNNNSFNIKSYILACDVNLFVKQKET

T2 sequence (Q3ZCJ8 25-134): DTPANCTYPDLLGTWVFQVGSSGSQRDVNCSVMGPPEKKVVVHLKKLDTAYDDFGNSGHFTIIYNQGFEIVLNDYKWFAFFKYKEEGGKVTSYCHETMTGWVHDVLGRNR
T2 sequence (Q3ZCJ8 231-394): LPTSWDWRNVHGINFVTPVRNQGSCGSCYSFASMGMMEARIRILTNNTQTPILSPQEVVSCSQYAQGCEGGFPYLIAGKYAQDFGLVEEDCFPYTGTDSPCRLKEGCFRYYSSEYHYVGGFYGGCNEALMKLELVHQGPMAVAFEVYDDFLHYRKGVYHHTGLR
T2 sequence (Q3ZCJ8 395-463): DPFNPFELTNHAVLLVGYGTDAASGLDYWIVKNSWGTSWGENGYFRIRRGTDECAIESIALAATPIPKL

SMILES | kinact (DPAP1) [s⁻¹] | kinact/KI (DPAP1) [M⁻¹ s⁻¹] | kinact (CatC (bovine)) [s⁻¹] | kinact/KI (CatC (bovine)) [M⁻¹ s⁻¹] | kinact (DPAP3 [1]) [s⁻¹] | kinact/KI (DPAP3 [1]) [M⁻¹ s⁻¹] | IC50 (DPAP3 [2]) [µM]
N[C@@H](Cc1ccc2ccccc2c1)C(=O)N[C@H](/C=C/S(=O)(=O)c1ccccc1)CCc1ccccc1 [2Nal‐hPhe‐VS] | 0.0067 ± 0.0002 | 200 ± 5 | 0.0037 ± 0.0002 | 900 ± 100 | 0.00259 ± 7e-05 | 10200 ± 500 | 
N[C@@H](Cc1ccc2ccccc2c1)C(=O)N[C@H](/C=C/S(=O)(=O)c1ccccc1)CCCCOCc1ccccc1 [2Nal‐nLeu(o‐Bzl)‐VS] | 0.005 ± 0.0017 | 190 ± 50 | 0.0024 ± 0.0006 | 1370 ± 90 | 0.006 ± 0.0007 | 2200 ± 300 | 
N[C@H](Cc1c[nH]c2ccccc12)C(=O)N[C@H](/C=C/S(=O)(=O)c1ccccc1)CCc1ccccc1 [D‐Trp‐hPhe‐VS] | 0.0027 ± 0.0002 | 26 ± 1 | 0.0026 ± 0.0001 | 620 ± 70 | 0.0017 ± 0.0006 | 320 ± 80 | 
N[C@H](Cc1c[nH]c2ccccc12)C(=O)N[C@H](/C=C/S(=O)(=O)c1ccccc1)CCCCOCc1ccccc1 [D‐Trp‐nLeu(o‐Bzl)‐VS] | 0.0055 ± 0.0007 | 44 ± 2 | 0.00197 ± 6e-05 | 1700 ± 100 | 0.0036 ± 0.0002 | 470 ± 10 | 2.7 ± 1.6
N[C@H](C(=O)N[C@H](/C=C/S(=O)(=O)c1ccccc1)CCc1ccccc1)C1Cc2ccccc2C1 [Igl‐hPhe‐VS] | 0.0027 ± 0.0001 | 500 ± 30 | 0.0058 ± 0.0003 | 18000 ± 3000 | 0.0021 ± 0.0007 | 205000 ± 22000 | 
N[C@H](C(=O)N[C@H](/C=C/S(=O)(=O)c1ccccc1)CCCCOCc1ccccc1)C1Cc2ccccc2C1 [Igl‐nLeu(o‐Bzl)‐VS] | 0.0041 ± 0.0002 | 860 ± 50 | 0.00148 ± 6e-05 | 135000 ± 14000 | 0.0056 ± 0.0004 | 35000 ± 4500 | 
N[C@@H](Cc1c[nH]c2ccccc12)C(=O)N[C@H](/C=C/S(=O)(=O)c1ccccc1)CCc1ccccc1 [L‐Trp‐hPhe‐VS] | 0.0017 ± 0.0001 | 3200 ± 300 | 0.0022 ± 9e-05 | 131000 ± 15000 | 0.0033 ± 0.0004 | 52000 ± 7000 | 
